Source: US6737383B1, “Herbicidal oxadiazolidines” (priority 1999, dated 2004)

What was measured:
purple nutsedge = experiment: Test B pre/postemergence purple nutsedge; format: in vivo, Cyperus rotundus
Method in brief: (§1)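 Response is a visual 0-to-10 score relative to untreated plants, where 0 means no effect and 10 means complete control, taken twelve to sixteen days after application. Treatments went onto soil at planting and onto foliage of 1- to 4-leaf plants, using a surfactant-containing non-phytotoxic solvent.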

blackgrass = experiment: Test B pre/postemergence blackgrass; format: in vivo, Alopecurus myosuroides
Method in brief: as §1

bedstraw = experiment: Test B pre/postemergence bedstraw; format: in vivo, Galium aparine
Method in brief: as §1

pigweed = experiment: Test B pre/postemergence pigweed; format: in vivo, Amaranthus retroflexus
Method in brief: as §1

bamyardgrass = experiment: Test B flood test barnyardgrass; format: in vivo, Echinochloa crus-galli
Method in brief: (§2)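 Each value is a visual injury score relative to controls, with 10 meaning complete control and 0 no effect. Evaluation took place twelve to sixteen days after the 2-leaf-stage plants were treated and kept in the greenhouse.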

wheat = experiment: Test B pre/postemergence wheat; format: in vivo, Triticum aestivum
Method in brief: as §1

rape = experiment: Test B pre/postemergence rape; format: in vivo, Brassica napus
Method in brief: as §1

soybean = experiment: Test B pre/postemergence soybean; format: in vivo, Glycine max
Method in brief: as §1

velvetleaf = experiment: Test B pre/postemergence velvetleaf; format: in vivo, Abutilon theophrasti
Method in brief: as §1

sugar beet = experiment: Test B pre/postemergence sugar beet; format: in vivo, Beta vulgaris
Method in brief: as §1

giant foxtail = experiment: Test B pre/postemergence giant foxtail; format: in vivo, Setaria faberii
Method in brief: as §1

wild oat = experiment: Test B pre/postemergence wild oat; format: in vivo, Avena fatua
Method in brief: as §1

rice = experiment: Test B flood test rice; format: in vivo, Oryza sativa
Method in brief: as §2

morningglory = experiment: Test B pre/postemergence morningglory; format: in vivo, Ipomoea hederacea
Method in brief: as §1

smallflower flatsedge = experiment: Test B flood test smallflower flatsedge; format: in vivo, Cyperus difformis; conditions: for S. Flatsedge plant response rating: scale of 0 to 10 where 0 is no effect and 10 is complete control
Method in brief: as §2

duck salad = experiment: Test B flood test duck salad; format: in vivo, Heteranthera limosa
Method in brief: as §2

[1] = Postemergence, Rate 125 g/ha, scale of 0 to 10 where 0 is no effect and 10 is complete control
[2] = Preemergence, Rate 62 g/ha, scale 0 to 10 (0 no effect, 10 complete control)
[3] = Preemergence, Rate 125 g/ha, 0 is no effect, 10 is complete control
[4] = Preemergence, Rate 250 g/ha, scale 0 to 10, 0 is no effect, 10 is complete control
[5] = Preemergence, Rate 500 g/ha, scale 0 to 10 (0 no effect, 10 complete control)
[6] = Rate 62 g/ha, Postemergence, scale of 0 to 10 where 0 is no effect and 10 is complete control
[7] = Rate 250 g/ha, Postemergence, scale 0 to 10, 0 is no effect, 10 is complete control
[8] = Rate 500 g/ha, Postemergence, scale 0 to 10
[9] = Postemergence (flood test species), Rate 125 g/ha, scale of 0 to 10 where 0 is no effect and 10 is complete control
[10] = Rate 31 g/ha, Postemergence section (flood test species), scale 0 to 10
[11] = Rate 62 g/ha, Postemergence section, flood test species, scale of 0 to 10 where 0 is no effect and 10 is complete control
[12] = Rate 250 g/ha, Postemergence (flood test), scale 0 to 10, 0 is no effect, 10 is complete control

CC(C)N(C(=O)n1oc(=O)n(C)c1=O)c1ccc(F)cc1 [Compound 138]
Nutsedge plant response rating (purple nutsedge; [1]): 5 | Nutsedge plant response rating (purple nutsedge; [2]): 2 | Nutsedge plant response rating (0 to 10 scale) (purple nutsedge; [3]): 5 | Nutsedge plant response rating (purple nutsedge; [4]): 7 | Nutsedge plant response rating (purple nutsedge; [5]): 7 | Nutsedge plant response rating (purple nutsedge; [6]): 4 | Plant response rating, Nutsedge (purple nutsedge; [7]): 6 | Blackgrass plant response rating (blackgrass; [1]): 9 | Blackgrass plant response rating (blackgrass; [2]): 9 | Blackgrass plant response rating (0 to 10 scale) (blackgrass; [3]): 9 | Blackgrass plant response rating (blackgrass; [4]): 9 | Blackgrass plant response rating (blackgrass; [5]): 9 | Blackgrass plant response rating (blackgrass; [6]): 7 | Plant response rating, Blackgrass (blackgrass; [7]): 9 | Blackgrass plant response rating (blackgrass; [8]): 9 | Bedstraw plant response rating (bedstraw; [1]): 7 | Bedstraw plant response rating (bedstraw; [2]): 5 | Bedstraw plant response rating (0 to 10 scale) (bedstraw; [3]): 7 | Bedstraw plant response rating (bedstraw; [4]): 10 | Bedstraw plant response rating (bedstraw; [5]): 10 | Bedstraw plant response rating (bedstraw; [6]): 2 | Plant response rating, Bedstraw (bedstraw; [7]): 8 | Bedstraw plant response rating (bedstraw; Rate 500 g/ha, Postemergence, scale 0 to 10, 0 no effect, 10 complete control): 9 | Redroot pigweed plant response rating (pigweed; [1]): 5 | Redroot pigweed plant response rating (pigweed; [2]): 9 | Redroot pigweed plant response rating (0 to 10 scale) (pigweed; [3]): 10 | Redroot pigweed plant response rating (pigweed; [4]): 10 | Redroot pigweed plant response rating (pigweed; [5]): 10 | Redroot pigweed plant response rating (pigweed; [6]): 3 | Plant response rating, Redroot pigweed (pigweed; [7]): 7 | Redroot pigweed plant response rating (pigweed; [8]): 8 | Barnyardgrass plant response rating (bamyardgrass; [9]): 0 | Barnyardgrass plant response rating (bamyardgrass; [10]): 0 | Barnyardgrass plant response rating (bamyardgrass; [11]): 0 | Plant response rating, Barnyardgrass (bamyardgrass; [12]): 8 | Wheat plant response rating (wheat; [1]): 8 | Wheat plant response rating (wheat; [2]): 3 | Wheat plant response rating (0 to 10 scale) (wheat; [3]): 5 | Wheat plant response rating (wheat; [4]): 6 | Wheat plant response rating (wheat; [5]): 9 | Wheat plant response rating (wheat; [6]): 3 | Plant response rating, Wheat (wheat; [7]): 8 | Wheat plant response rating (wheat; [8]): 8 | Rape plant response rating (rape; [1]): 0 | Rape plant response rating (rape; [2]): 7 | Rape plant response rating (0 to 10 scale) (rape; [3]): 9 | Rape plant response rating (rape; [4]): 10 | Rape plant response rating (rape; [5]): 10 | Rape plant response rating (rape; [6]): 0 | Plant response rating, Rape (rape; [7]): 2 | Rape plant response rating (rape; [8]): 7 | Soybean plant response rating (soybean; [1]): 3 | Soybean plant response rating (soybean; [2]): 0 | Soybean plant response rating (0 to 10 scale) (soybean; [3]): 4 | Soybean plant response rating (soybean; [4]): 5 | Soybean plant response rating (soybean; [5]): 8 | Soybean plant response rating (soybean; [6]): 2 | Plant response rating, Soybean (soybean; [7]): 4 | Soybean plant response rating (soybean; [8]): 4 | Velvetleaf plant response rating (velvetleaf; [1]): 4 | Velvetleaf plant response rating (velvetleaf; [2]): 5 | Velvetleaf plant response rating (0 to 10 scale) (velvetleaf; [3]): 8 | Velvetleaf plant response rating (velvetleaf; [4]): 10 | Velvetleaf plant response rating (velvetleaf; [5]): 10 | Velvetleaf plant response rating (velvetleaf; [6]): 2 | Plant response rating, Velvetleaf (velvetleaf; [7]): 4 | Velvetleaf plant response rating (velvetleaf; [8]): 7 | Sugarbeets plant response rating (sugar beet; [1]): 0 | Sugarbeets plant response rating (sugar beet; [2]): 9 | Sugarbeets plant response rating (0 to 10 scale) (sugar beet; [3]): 10 | Sugarbeets plant response rating (sugar beet; [4]): 10 | Sugarbeets plant response rating (sugar beet; [5]): 10 | Sugarbeets plant response rating (sugar beet; [6]): 0 | Plant response rating, Sugarbeets (sugar beet; [7]): 6 | Sugarbeets plant response rating (sugar beet; [8]): 8 | Giant foxtail plant response rating (giant foxtail; [1]): 9 | Giant foxtail plant response rating (giant foxtail; [2]): 7 | Giant foxtail plant response rating (0 to 10 scale) (giant foxtail; [3]): 9 | Giant foxtail plant response rating (giant foxtail; [4]): 10 | Giant foxtail plant response rating (giant foxtail; [5]): 10 | Giant foxtail plant response rating (giant foxtail; [6]): 9 | Plant response rating, Giant foxtail (giant foxtail; [7]): 9 | Giant foxtail plant response rating (giant foxtail; [8]): 9 | Wild oats plant response rating (wild oat; [1]): 2 | Wild oats plant response rating (wild oat; [2]): 5 | Wild oats plant response rating (0 to 10 scale) (wild oat; [3]): 9 | Wild oats plant response rating (wild oat; [5]): 10 | Wild oats plant response rating (wild oat; [6]): 0 | Plant response rating, Wild oats (wild oat; [7]): 3 | Wild oats plant response rating (wild oat; [8]): 8 | Rice plant response rating (rice; [9]): 7 | Rice plant response rating (rice; [10]): 0 | Rice plant response rating (rice; [11]): 0 | Plant response rating, Rice (rice; [12]): 8 | Morningglory plant response rating (morningglory; [1]): 5 | Morningglory plant response rating (morningglory; [2]): 0 | Morningglory plant response rating (0 to 10 scale) (morningglory; [3]): 0 | Morningglory plant response rating (morningglory; [4]): 3 | Morningglory plant response rating (morningglory; [5]): 4 | Morningglory plant response rating (morningglory; [6]): 5 | Plant response rating, Morningglory (morningglory; [7]): 6 | Morningglory plant response rating (morningglory; [8]): 10 | S. Flatsedge plant response rating (smallflower flatsedge; Postemergence (flood test species), Rate 125 g/ha): 0 | S. Flatsedge plant response rating (smallflower flatsedge; Rate 62 g/ha, Postemergence section, flood test species): 0 | Plant response rating, S. Flatsedge (smallflower flatsedge; [12]): 7 | Ducksalad plant response rating (duck salad; [9]): 0 | Ducksalad plant response rating (duck salad; [10]): 0 | Ducksalad plant response rating (duck salad; [11]): 0 | Plant response rating, Ducksalad (duck salad; [12]): 2
